Patent EP2669276A1 (Université de Strasbourg, priority 2012, dated 2013)

Tests used:
hNPFF2 = biological target: T1, hNPFF2 (Homo sapiens, UniProt Q9Y5X5); test: Receptor binding assay with [3H]-FFRFamide on CHO cell membranes expressing SF-hNPFFR2; conditions: [3H]-FFRF-NH2 radioligand, mean of at least two experiments; for Ki: read-out: Ki NPFF2
T1 construct: The cDNA encoding the full-length human NPFFR1 and human NPFFR2; expressed in transfected cells
Text: (§1) The cDNA encoding the full-length human NPFFR1 and human NPFFR2 were subcloned into the pcDNA3 expression vector (Invitrogen, Cergy Pontoise, France) using standard molecular biology methods. A sequence encoding a signal sequence and a Flag epitope was fused to the 5' coding sequence of both hNPFFR1 and hNPFFR2 cDNA according to (Guan et al., 1992) resulting in a SF-hNPFFR1 and SF-hNPFFR2 constructs. These contructs were stably transfected into CHO cells.
(§2) Membranes from CHO cells stably expressing SF-hNPFFR1 or SF-hNPFFR2 were prepared as described (Becker et al., 1999). SF-hNPFFR1 or SF-hNPFFR2 membranes (10µg) were incubated for 30 min at 25 °C in a final volume of 0.5 ml containing 50 mM HEPES pH 7.4, 1 mM CaCl2, 1 mM MgCl2, 0.1% bovine serum albumin, 10 nM and 3 nM [^3H]-FFRFamide (CEA, Paris; specific activity, 13,6 Ci/mmol) for […], respectively and the ligands to be tested. Non-specific binding was determined in presence of 1 µM neuropeptide FF for SF-hNPFFR2 and 1 µM neuropeptide VF for SF -hNPFFR1. Typical total and nonspecific binding were 1200 and 200 dpm, respectively for SF-hNPFFR1 and SF-hNPFFR2. Incubation mixtures were rapidly filtered and washed with 50 mM HEPES pH 7.4, 1 mM CaCl2, 1 mM MgCl2, on 96 wells GF/B unifilter (Perkin Elmer). Unifilter plates where then dryied for 1hr at 65°C. Bound radioactivity was determined by scintillation counting with 30 µl of scintillation cocktail (O-scint, Perkin Elmer) per well on a Topcount scintillation apparatus (Perkin Elmer).

hNPFF1 = biological target: T2, hNPFF1 (Homo sapiens, UniProt Q9GZQ6); test: Receptor binding assay with [3H]-FFRFamide on CHO cell membranes expressing SF-hNPFFR1; conditions: [3H]-FFRF-NH2 radioligand, mean of at least two experiments; for Ki: read-out: Ki NPFF1
T2 construct: The cDNA encoding the full-length human NPFFR1 and human NPFFR2; expressed in transfected cells
T2 sequence (Q9GZQ6 whole entry): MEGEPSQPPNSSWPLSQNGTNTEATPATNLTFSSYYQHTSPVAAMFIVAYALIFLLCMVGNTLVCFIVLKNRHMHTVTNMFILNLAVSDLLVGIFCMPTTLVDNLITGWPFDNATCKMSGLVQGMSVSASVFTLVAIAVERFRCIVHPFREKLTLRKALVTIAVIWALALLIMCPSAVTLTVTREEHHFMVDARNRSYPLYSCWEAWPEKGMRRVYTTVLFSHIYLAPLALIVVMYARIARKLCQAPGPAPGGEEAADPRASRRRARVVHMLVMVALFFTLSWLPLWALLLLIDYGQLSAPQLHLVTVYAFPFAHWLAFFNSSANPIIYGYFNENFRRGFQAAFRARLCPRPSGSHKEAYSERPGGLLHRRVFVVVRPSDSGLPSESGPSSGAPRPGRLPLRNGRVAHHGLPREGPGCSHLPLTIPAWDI
Text: as §1, §2

T1 sequence (Q9Y5X5 whole entry): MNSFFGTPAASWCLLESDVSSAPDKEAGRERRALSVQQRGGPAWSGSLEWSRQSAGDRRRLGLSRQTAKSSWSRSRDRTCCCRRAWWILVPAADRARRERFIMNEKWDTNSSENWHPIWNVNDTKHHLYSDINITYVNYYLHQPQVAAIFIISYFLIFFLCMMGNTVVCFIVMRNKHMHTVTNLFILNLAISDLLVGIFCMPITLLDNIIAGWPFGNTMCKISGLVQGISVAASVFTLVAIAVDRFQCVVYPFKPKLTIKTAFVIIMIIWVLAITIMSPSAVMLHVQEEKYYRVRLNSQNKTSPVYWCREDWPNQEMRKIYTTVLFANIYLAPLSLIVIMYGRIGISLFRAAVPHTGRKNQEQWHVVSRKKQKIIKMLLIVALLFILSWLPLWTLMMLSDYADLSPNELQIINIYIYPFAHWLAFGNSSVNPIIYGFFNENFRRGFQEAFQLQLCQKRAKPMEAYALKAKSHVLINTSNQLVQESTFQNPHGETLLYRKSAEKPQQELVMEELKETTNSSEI

Structure (SMILES)	inhibition at 0.5 µM (hNPFF2) [%]	inhibition at 5 µM (hNPFF2) [%]	inhibition at 0.5 µM (hNPFF1) [%]	inhibition at 5 µM (hNPFF1) [%]	Ki (hNPFF1) [nM]	Ki (hNPFF2) [nM]
O=C(N[C@H](CCCN1CCc2ccccc2C1)C(=O)NCCc1ccccc1)c1ccccc1-c1ccccc1 [Compound 25, (2R)-N-(2-phenylethyl)-2-[(2-phenylphenyl)formamido]-5-(1,2,3,4-tetrahydroisoquinolin-2-yl)pentanamide]	0	16 ± 5	14 ± 1	51 ± 14	–	–
O=C(N[C@H](CCCN1CCCCC1)C(=O)NCCc1ccccc1)c1ccccc1-c1ccccc1 [Compound 27, (2R)-N-(2-phenylethyl)-2-[(2-phenylphenyl)formamido]-5-(piperidin-1-yl)pentanamide]	0	13 ± 8	–	–	179 ± 64	–
O=C(N[C@@H](CCCN1CCCCC1)C(=O)NCCCc1ccccc1)c1ccccc1-c1ccccc1 [Compound 28, (2S)-2-[(2-phenylphenyl)formamido]-N-(3-phenylpropyl)-5-(piperidin-1-yl)pentanamide]	0	17	16 ± 25	41 ± 2	–	–
COc1ccc(-c2ccccc2C(=O)N[C@@H](CCCN2CCCCC2)C(=O)NCCCc2ccccc2)cc1 [Compound 29, (2S)-2-{[2-(4-methoxyphenyl)phenyl]formamido}-N-(3-phenylpropyl)-5-(piperidin-1-yl)pentanamide]	0	23 ± 5	–	–	170 ± 70	–
COc1ccc(-c2ccccc2C(=O)N[C@@H](CCCN2CCCCCC2)C(=O)NCCCc2ccccc2)cc1 [Compound 30, (2S)-5-(azepan-1-yl)-2-{[2-(4-methoxyphenyl)phenyl]formamido}-N-(3-phenylpropyl)pentanamide]	–	–	–	–	64 ± 32	76 ± 18
O=C(N[C@@H](CCCN1CCC(c2ccccc2)CC1)C(=O)NCCc1ccccc1)c1ccccc1-c1ccccc1 [Compound 31, (2S)-N-(2-phenylethyl)-2-[(2-phenylphenyl)formamido]-5-(4-phenylpiperidin-1-yl)pentanamide]	0	45 ± 7	–	–	485 ± 35	–
O=C(N[C@@H](CCCN1CCC(Cc2ccccc2)CC1)C(=O)NCCc1ccccc1)c1ccccc1-c1ccccc1 [Compound 32, (2S)-5-(4-benzylpiperidin-1-yl)-N-(2-phenylethyl)-2-[(2-phenylphenyl)formamido]pentanamide]	–	–	–	–	400	34
O=C(N[C@@H](CCCN1CCC(N2CCCCC2)CC1)C(=O)NCCc1ccccc1)c1ccccc1-c1ccccc1 [Compound 33, (2S)-N-(2-phenylethyl)-2-[(2-phenylphenyl)formamido]-5-[4-(piperidin-1-yl)piperidin-1-yl]pentanamide]	13 ± 11	55 ± 15	–	–	71 ± 11	–
CN1CCN(CCC[C@H](NC(=O)c2ccccc2-c2ccccc2)C(=O)NCCc2ccccc2)CC1 [Compound 34, (2S)-5-(4-methylpiperazin-1-yl)-N-(2-phenylethyl)-2-[(2-phenylphenyl)formamido]pentanamide]	0	12 ± 5	–	–	232 ± 17	–
CC(=O)N1CCN(CCC[C@H](NC(=O)c2ccccc2-c2ccccc2)C(=O)NCCc2ccccc2)CC1 [Compound 35, (2S)-5-(4-acetylpiperazin-1-yl)-N-(2-phenylethyl)-2-[(2-phenylphenyl)formamido]pentanamide]	0	0	–	–	319 ± 13	–
O=C(N[C@@H](CCCN1CCOCC1)C(=O)NCCc1ccccc1)c1ccccc1-c1ccccc1 [Compound 36, (2S)-5-(morpholin-4-yl)-N-(2-phenylethyl)-2-[(2-phenylphenyl)formamido]pentanamide]	2	25 ± 2	10 ± 3	25 ± 10	–	–
O=C(N[C@@H](CCCN1CCC(N2C(=O)Cc3ccccc32)CC1)C(=O)NCCc1ccccc1)c1ccccc1-c1ccccc1 [Compound 37, (2S)-5-[4-(2-oxo-2,3-dihydro-1H-indol-1-yl)piperidin-1-yl]-N-(2-phenylethyl)-2-[(2-phenylphenyl)formamido]pentanamide]	0	45	21 ± 6	42 ± 3	–	–
CN(CCC[C@H](NC(=O)c1ccccc1-c1ccccc1)C(=O)NCCc1ccccc1)C1CCN(Cc2ccccc2)CC1 [Compound 38, (2S)-5-[(1-benzylpiperidin-4-yl)(methyl)amino]-N-(2-phenylethyl)-2-[(2-phenylphenyl)formamido]pentanamide]	–	–	–	–	85 ± 20	40 ± 23
O=C(N[C@@H](CCCN1CCN(C(=O)c2ccccc2)CC1)C(=O)NCCc1ccccc1)c1ccccc1-c1ccccc1 [Compound 39, (2S)-5-(4-benzoylpiperazin-1-yl)-N-(2-phenylethyl)-2-[(2-phenylphenyl)formamido]pentanamide]	0	17	–	–	187 ± 9	–
O=C(N[C@@H](CCCN1CCC(Cc2ccccc2)CC1)C(=O)NCCc1ccccc1)c1ccccc1 [Compound 40, (2S)-5-(4-benzylpiperidin-1-yl)-N-(2-phenylethyl)-2-(phenylformamido)pentanamide]	5 ± 3	19 ± 1	19 ± 3	32 ± 1	–	–
O=C(N[C@@H](CCCN1CCC(Cc2ccccc2)CC1)C(=O)NCCc1ccccc1)c1ccccc1Cl [Compound 41, (2S)-5-(4-benzylpiperidin-1-yl)-2-[(2-chlorophenyl)formamido]-N-(2-phenylethyl)pentanamide]	0	41 ± 3	0	54 ± 3	–	–
O=C(N[C@@H](CCCN1CCC(Cc2ccccc2)CC1)C(=O)NCCc1ccccc1)c1ccc2ccccc2n1 [Compound 42, (2S)-5-(4-benzylpiperidin-1-yl)-N-(2-phenylethyl)-2-(quinolin-2-ylformamido)pentanamide]	4 ± 10	47	11 ± 15	72 ± 11	–	–
O=C(N[C@@H](CCCN1CCC(Cc2ccccc2)CC1)C(=O)NCCc1ccccc1)c1cccc(Cl)c1 [Compound 43, (2S)-5-(4-benzylpiperidin-1-yl)-2-[(3-chlorophenyl)formamido]-N-(2-phenylethyl)pentanamide]	–	–	–	–	441 ± 80	147 ± 2
O=C(NCCc1ccccc1)[C@H](CCCN1CCC(Cc2ccccc2)CC1)NC(=O)C12CC3CC(CC(C3)C1)C2 [Compound 44, (2S)-2-(adamantan-1-ylformamido)-5-(4-benzylpiperidin-1-yl)-N-(2-phenylethyl)pentanamide]	–	–	–	–	603 ± 139	188 ± 6
O=C(C=C(c1ccccc1)c1ccccc1)N[C@@H](CCCN1CCC(Cc2ccccc2)CC1)C(=O)NCCc1ccccc1 [Compound 45, (2S)-5-(4-benzylpiperidin-1-yl)-2-(3,3-diphenylprop-2-enamido)-N-(2-phenylethyl)pentanamide]	23 ± 25	25 ± 19	10 ± 18	12 ± 2	–	–
